Experimental data published in the supplement of paper PMC13380429.

Tests used:
Caco-2 [1] = experiment: cell viability relative to DMSO; higher = less toxic; details: 72 h
Calu-3 [2] = experiment: as above; details: 72 h
HepG2 [3] = experiment: as above; details: 72 h
Vero E6 [4] = experiment: as above; details: 72 h
[5] = system: A549-ACE2 infected with SARS-CoV-2; experiment: cell count relative to DMSO; higher = less toxic; details: 24 h
Caco-2 [6] = experiment: relative viability EC50 (midpoint between 100% and the lowest measured viability); higher = less toxic; details: 72 h
Calu-3 [7] = experiment: as above; details: 72 h
HepG2 [8] = experiment: as above; details: 72 h
Vero E6 [9] = experiment: as above; details: 72 h
[10] = system: A549-ACE2 infected with SARS-CoV-2; experiment: morphology score (similarity to uninfected cells); higher = more like uninfected cells; details: 24 h
A549-ACE2 [11] = experiment: drug-induced phospholipidosis relative to tamoxifen; higher = more phospholipidosis
[12] = system: A549-ACE2 infected with SARS-CoV-2; experiment: SARS-CoV-2 infection rate relative to DMSO; higher = more infection; details: 24 h
Caco-2 [13] = experiment: drug sensitivity score (DSS) for viability; higher = more toxic; extreme values may be limits of the assay; details: 72 h
Calu-3 [14] = experiment: as above; details: 72 h
HepG2 [15] = experiment: as above; details: 72 h
Vero E6 [16] = experiment: as above; details: 72 h
U2OS [17] = experiment: cell viability relative to DMSO; higher = less toxic; details: 72 h
U2OS [18] = experiment: relative viability EC50 (midpoint between 100% and the lowest measured viability); higher = less toxic; details: 72 h
A549-ACE2 [19] = experiment: phospholipidosis EC50; higher = less potent phospholipidosis inducer
U2OS [20] = experiment: drug sensitivity score (DSS) for viability; higher = more toxic; extreme values may be limits of the assay; details: 72 h

Cc1nnc2n1-c1sc(CCC(=O)N3CCOCC3)cc1C(c1ccccc1Cl)=NC2 [apafant]
Details	SARS-CoV-2 infection rate, [12] [%]	cell count, [5] [%]	cell viability, Caco-2 [1] [%]	cell viability, Calu-3 [2] [%]	cell viability, HepG2 [3] [%]	cell viability, Vero E6 [4] [%]	morphology score, [10]
1 nM	–	–	108	94.3	105	111	–
10 nM	–	–	107	94.7	93.7	105	–
100 nM	–	–	101	95.3	108	104	–
0.3 µM	101	101	–	–	–	–	-0.03
1000 nM	–	–	104	105	92.3	105	–
3 µM	83	102	–	–	–	–	0.43
10000 nM	–	–	94	87.1	102	99.7	–
10 µM	102	100	–	–	–	–	-0.18
30 µM	93	103	–	–	–	–	0.24

Details	drug sensitivity score	relative viability EC50 [µM]
Caco-2 [6]	–	> 10
Caco-2 [13]	0	–
Calu-3 [7]	–	> 10
Calu-3 [14]	0	–
HepG2 [8]	–	> 10
HepG2 [15]	0	–
Vero E6 [9]	–	> 10
Vero E6 [16]	0	–

drug-induced phospholipidosis [%], A549-ACE2 [11]
Details	0.3 µM	0.833333 µM	3.33333 µM	6.66667 µM	10 µM	30 µM
24 h	-0.44	-1.14	-1.04	-0.5	-1.44	-0.48
48 h	0.52	-1.18	0.04	0.92	-0.18	0.6
72 h	2.35	-0.663	0.399	-0.364	0.448	3.95

Cn1c(NC[C@@H](N)Cc2ccccc2)nc(-c2ccncc2)c(-c2ccc3ccccc3c2)c1=O [AMG-548]
Details	SARS-CoV-2 infection rate [%]	cell count [%]	cell viability [%]	morphology score	phospholipidosis EC50 [µM]
A549-ACE2 [19], 24 h	–	–	–	–	8.48
A549-ACE2 [19], 48 h	–	–	–	–	9.02
A549-ACE2 [19], 72 h	–	–	–	–	9.93
Caco-2 [1], 1 nM	–	–	96.8	–	–
Caco-2 [1], 10 nM	–	–	87.9	–	–
Caco-2 [1], 100 nM	–	–	102	–	–
Caco-2 [1], 1000 nM	–	–	89.5	–	–
Caco-2 [1], 10000 nM	–	–	69.9	–	–
HepG2 [3], 1 nM	–	–	106	–	–
HepG2 [3], 10 nM	–	–	108	–	–
HepG2 [3], 100 nM	–	–	101	–	–
HepG2 [3], 1000 nM	–	–	104	–	–
HepG2 [3], 10000 nM	–	–	72.4	–	–
U2OS [17], 1 nM	–	–	101	–	–
U2OS [17], 10 nM	–	–	94.2	–	–
U2OS [17], 100 nM	–	–	93.1	–	–
U2OS [17], 1000 nM	–	–	85.3	–	–
U2OS [17], 10000 nM	–	–	76.3	–	–
Vero E6 [4], 1 nM	–	–	106	–	–
Vero E6 [4], 10 nM	–	–	104	–	–
Vero E6 [4], 100 nM	–	–	99.2	–	–
Vero E6 [4], 1000 nM	–	–	89	–	–
Vero E6 [4], 10000 nM	–	–	97.2	–	–
[5], 0.3 µM	–	93	–	–	–
[5], 3 µM	–	110	–	–	–
[5], 10 µM	–	123	–	–	–
[5], 30 µM	–	106	–	–	–
[10], 0.3 µM	–	–	–	-0.14	–
[10], 3 µM	–	–	–	0.22	–
[10], 10 µM	–	–	–	0.82	–
[10], 30 µM	–	–	–	0.53	–
[12], 0.3 µM	99	–	–	–	–
[12], 3 µM	71	–	–	–	–
[12], 10 µM	27	–	–	–	–
[12], 30 µM	11	–	–	–	–

Details	drug sensitivity score	relative viability EC50 [µM]
Caco-2 [13]	2.8	–
HepG2 [15]	0.9	–
U2OS [18]	–	> 10
U2OS [20]	2.3	–
Vero E6 [9]	–	> 10
Vero E6 [16]	0.3	–

drug-induced phospholipidosis [%], A549-ACE2 [11]
Details	0.3 µM	0.833333 µM	3.33333 µM	6.66667 µM	10 µM	30 µM
24 h	-3.67	-2.85	6.77	44.3	80.5	129
48 h	-2.54	-2.01	5.31	39.9	73.3	125
72 h	-1.85	-0.623	7.44	37.6	80.8	151
